Measured values as given in patent US7465576B2, “Method for treating periodontal disease with a bacteriocidal disinfectant” (priority 2004, dated 2008).
“And” between values parts separate entries of the source, which are not always exact repeats. Equal entries are not always repeated. Where two headings read alike, the source gives them in different places.

Columns and labels:
MRSA or E. coli O-157 = type: cell-based; conditions: organic substance exceeding 50 ppm
[1] = tested on: plaque adhering to supragingival calculus; assay: Viable cell numbers in plaque soaked in disinfectant (Test Example 4); type: cell-based; conditions: 60 minutes of immersion
[2] = tested on: detached skin wounds of mice; assay: Recovery from skin damage (Test Example 5); type: in vivo; conditions: applied to wound twice a day
thumbnails of volunteers = assay: Elongation of thumbnails (Test Example 7); type: in vivo, human; conditions: for Elongation of nails: Left (treated) thumbnail
Text: As a general rule the bacterial disinfectants were applied immediately after hand washing. Nail growth and shape are closely tied to individual physical condition, and are a benchmark of health.

acid-fast bacteria = type: cell-based
[3] = tested on: spores of sporulating bacteria; type: cell-based
[4] = tested on: putrefying bacteria in cooked rice; assay: Viable cell numbers in prepared food after spraying (Test Example 3); type: cell-based
Text: (§1) With regards to the putrefaction process of prepared food, we investigated whether or not the present bactericidal disinfectant could stop the progress of putrefaction when sprayed of food, and the degree of that bactericidal effect. Normally disinfectants are not applied to prepared food, but very often scraps of food become lodged in a periodontal pocket, providing a nutritional source for bacteria, and since the present bactericidal disinfectant is composed of compounds which are recognized as food additives, it is important to assess these effects. Just-prepared cooked rice, tofu (soybean curd), spinach with sesame dressing, and fried meat and vegetables were each crushed, homogenized, and left at 28° C. for use as the samples. After samples had been left for 5 hours, part of each was taken and used to measure bacterial viable cell number, while the respective disinfectants were sprayed uniformly on the remaining samples. Viable cell numbers were measured 1, 2 and 24 hours after spraying. Water alone was sprayed as a control. After samples had been left for 24 hours part of each was taken for measuring viable cell number, and the respective disinfectants were sprayed uniformly on the remaining samples. As when the samples were left for 5 hours, viable cell numbers were measured 1 hour, 2 hours and 24 hours after spraying. Water alone was sprayed as a control. Viable cell numbers were measured by the poured plate method using 5 g of each sample diluted by ordinary methods.
(§2) The degree of putrefaction of course differs depending on the preparation method, ingredients and environment, but in the case of the cooked rice in this experiment, the viable cell number immediately after preparation was […] cells/g of sample, rising to 1×10^3 cells/g of sample after 5 hours, 5×10^5 cells/g of sample after 24 hours and 7×10^6 cells/g of sample after 48 hours. In the case of the tofu (soybean curd), the initial viable cell number was 2×10^4 cells/g of sample, rising to 8×10^5 cells/g of sample after 5 hours, 9×10^7 cells/g of sample after 24 hours, and 1×10^9 cells/g of sample after 48 hours, with considerable putrefaction. In the case of the spinach with sesame dressing, the viable cell number was 2×10^3 cells/g of sample immediately after preparation, rising to 5×10^4 cells/g of sample after 5 hours, 3×10^7 cells/g of sample after 24 hours and 2×10^8 cells/g of sample after 48 hours. In the case of the fried meat and vegetables, it was […] cells/g of sample immediately after preparation, rising to 2×10^3 cells/g of sample after 5 hours and 2×10^8 cells/g of sample after 24 hours, at which point there was a slight smell of putrefaction, while after 48 hours putrefaction has progressed still further and the viable cell number had risen to 3×10^9 cells/g of sample.

[5] = tested on: putrefying bacteria in fried meat and vegetables; assay: as above; type: cell-based
Text: as §1, §2

[6] = tested on: putrefying bacteria in spinach with sesame dressing; assay: as above; type: cell-based
Text: as §1, §2

[7] = tested on: putrefying bacteria in tofu (soybean curd); assay: as above; type: cell-based
Text: as §1, §2

[8] = tested on: putrefying bacteria in prepared food; assay: Viable cell numbers in prepared food after spraying (Test Example 3), summary; type: cell-based
Text: With regards to the putrefaction process of prepared food, we investigated whether or not the present bactericidal disinfectant could stop the progress of putrefaction when sprayed of food, and the degree of that bactericidal effect. Normally disinfectants are not applied to prepared food, but very often scraps of food become lodged in a periodontal pocket, providing a nutritional source for bacteria, and since the present bactericidal disinfectant is composed of compounds which are recognized as food additives, it is important to assess these effects. Just-prepared cooked rice, tofu (soybean curd), spinach with sesame dressing, and fried meat and vegetables were each crushed, homogenized, and left at 28° C. for use as the samples. […] Water alone was sprayed as a control. […] Water alone was sprayed as a control. […] Consequently, although complete eradication was not achieved, it can be said that bactericide was largely achieved. That is, there is the ability to halt development of putrefying bacteria in food and a bactericidal effect.

[9] = tested on: plaque adhering to subgingival calculus; assay: Viable cell numbers in plaque soaked in disinfectant (Test Example 4); type: cell-based; conditions: 60 minutes of immersion
[10] = 5 days after severing, 20 mm when severed
[11] = sprayed after 5 hours, 1 hr after spraying
[12] = sprayed after 5 hours, 2 hrs after spraying
[13] = sprayed after 5 hours, 24 hrs after spraying
[14] = sprayed after 5 hours, just after spraying
[15] = sprayed after 24 hours, 1 hr after spraying
[16] = sprayed after 24 hours, 2 hrs after spraying
[17] = sprayed after 24 hours, 24 hrs after spraying
[18] = sprayed after 24 hours, just after spraying

Procedure for Red worms: Red worms with a mean length of 40 mm were prepared in groups of 10, the annuli of the red worms were severed with a cutter, and ordinary concentrations of the various bactericidal disinfectants contained in absorbent cotton were applied to the severed ends twice a day, morning and night. Application to the ends was continued even after the severed ends healed, and recovery and growth were observed. Water was applied as a control.

CC(O)C(=O)O.CCOc1ccc2nc3cc(N)ccc3c(N)c2c1 [Acrinol, acrinol]
bactericidal effect in presence of organic substance (MRSA or E. coli O-157): A similar tendency was seen
survival of bacteria living inside plaque [1]: half survived
Recovery: Complete recovery (coat grown back) [2]: 40 days
Recovery: Skin with roughly original thickness [2]: 15 days
Recovery: Thin skin overall [2]: 5 days
Elongation of nails (thumbnails of volunteers; 10 days): 0.8 mm
Elongation of nails (thumbnails of volunteers; 20 days): 1.6 mm
Elongation of nails (thumbnails of volunteers; 30 days): 2.4 mm
Elongation of nails (thumbnails of volunteers; 40 days): 3.3 mm
Elongation of nails (thumbnails of volunteers; 50 days): 4.0 mm
Elongation of nails (thumbnails of volunteers; 60 days): 4.8 mm
length of severed red worms (Red worms; [10]): 21 mm
length of severed red worms (Red worms; 10 days after severing): 22 mm
length of severed red worms (Red worms; 15 days after severing): 23 mm
length of severed red worms (Red worms; 20 days after severing): 24 mm
length of severed red worms (Red worms; 30 days after severing): 27 mm
length of severed red worms (Red worms; 40 days after severing): 29 mm
length of severed red worms (Red worms; 50 days after severing): 30 mm
Deaths (Red worms; groups of 10 red worms): 8

OO [3% aqueous hydrogen peroxide, hydrogen peroxide]
time required to kill acid-fast bacteria (acid-fast bacteria): a minute or more
effect against spores [3]: ineffective
bactericidal effect in presence of organic substance (MRSA or E. coli O-157): A similar tendency was seen
viable cell number [4, 11]: 1 × 10^2 cells/g of sample
viable cell number [4, 12]: 1.8 × 10^2 cells/g of sample
viable cell number [4, 13]: 5 × 10^4 cells/g of sample
viable cell number [4, 14]: 2 × 10^2 cells/g of sample
viable cell number [4, 15]: 9 × 10^3 cells/g of sample
viable cell number [4, 16]: 2 × 10^4 cells/g of sample
viable cell number [4, 17]: 8 × 10^5 cells/g of sample
viable cell number [4, 18]: 4 × 10^4 cells/g of sample
viable cell number [5, 11]: 2 × 10^2 cells/g of sample
viable cell number [5, 12]: 4 × 10^2 cells/g of sample
viable cell number [5, 13]: 5 × 10^6 cells/g of sample
viable cell number [5, 14]: 5 × 10^2 cells/g of sample
viable cell number [5, 15]: 5 × 10^4 cells/g of sample
viable cell number [5, 16]: 1 × 10^5 cells/g of sample
viable cell number [5, 17]: 4 × 10^8 cells/g of sample
viable cell number [5, 18]: 6 × 10^6 cells/g of sample
viable cell number [6, 11]: 4 × 10^2 cells/g of sample
viable cell number [6, 12]: 5 × 10^2 cells/g of sample
viable cell number [6, 13]: 1 × 10^5 cells/g of sample
viable cell number [6, 14]: 1 × 10^3 cells/g of sample
viable cell number [6, 15]: 5 × 10^3 cells/g of sample
viable cell number [6, 16]: 5 × 10^3 cells/g of sample
viable cell number [6, 17]: 7 × 10^6 cells/g of sample
viable cell number [6, 18]: 4 × 10^4 cells/g of sample
viable cell number [7, 11]: 2 × 10^3 cells/g of sample
viable cell number [7, 12]: 3 × 10^4 cells/g of sample
viable cell number [7, 13]: 6 × 10^6 cells/g of sample
viable cell number [7, 14]: 5 × 10^4 cells/g of sample
viable cell number [7, 15]: 3 × 10^4 cells/g of sample
viable cell number [7, 16]: 5 × 10^4 cells/g of sample
viable cell number [7, 17]: 1 × 10^8 cells/g of sample
viable cell number [7, 18]: 7 × 10^5 cells/g of sample
bactericidal effect on putrefying bacteria in food [8]: most of the bacteria survived immediately after spraying
survival of bacteria living inside plaque [1]: half survived
Recovery: Complete recovery (coat grown back) [2]: 40 days
Recovery: Skin with roughly original thickness [2]: 15 days
Recovery: Thin skin overall [2]: 5 days
Elongation of nails (thumbnails of volunteers; 10 days): 0.9 mm
Elongation of nails (thumbnails of volunteers; 20 days): 1.8 mm
Elongation of nails (thumbnails of volunteers; 30 days): 2.7 mm
Elongation of nails (thumbnails of volunteers; 40 days): 3.6 mm
Elongation of nails (thumbnails of volunteers; 50 days): 4.5 mm
Elongation of nails (thumbnails of volunteers; 60 days): 5.4 mm
difference in elongation between right and left hands (thumbnails of volunteers; applied for 2 months): No significant differences in elongation
length of severed red worms (Red worms; [10]): 21 mm
length of severed red worms (Red worms; 10 days after severing): 22 mm
length of severed red worms (Red worms; 15 days after severing): 23 mm
length of severed red worms (Red worms; 20 days after severing): 24 mm
length of severed red worms (Red worms; 30 days after severing): 25 mm
length of severed red worms (Red worms; 40 days after severing): 27 mm
length of severed red worms (Red worms; 50 days after severing): 28 mm
Deaths (Red worms; groups of 10 red worms): 7

N=C(NCCCCCCNC(=N)NC(=N)Nc1ccc(Cl)cc1)NC(=N)Nc1ccc(Cl)cc1 [Hibitane]
effect against acid-fast bacteria (acid-fast bacteria): ineffective
effect against spores [3]: ineffective
bactericidal effect in presence of organic substance (MRSA or E. coli O-157): the bacteria did not die after 1 minute of contact
viable cell number [4, 14]: 1 × 10^2 cells/g of sample
viable cell number [4, 15]: 7 × 10^2 cells/g of sample
viable cell number [4, 16]: 5 × 10^2 cells/g of sample
viable cell number [4, 17]: 4 × 10^3 cells/g of sample
viable cell number [4, 18]: 1 × 10^4 cells/g of sample
viable cell number [5, 13]: 5 × 10^3 cells/g of sample
viable cell number [5, 14]: 2 × 10^2 cells/g of sample
viable cell number [5, 15]: 5 × 10^2 cells/g of sample
viable cell number [5, 16]: 2 × 10^2 cells/g of sample
viable cell number [5, 17]: 5 × 10^4 cells/g of sample
viable cell number [5, 18]: 7 × 10^4 cells/g of sample
viable cell number [6, 13]: 6 × 10^2 cells/g of sample
viable cell number [6, 14]: 2 × 10^2 cells/g of sample
viable cell number [6, 15]: 2 × 10^2 cells/g of sample
viable cell number [6, 16]: 1 × 10^2 cells/g of sample
viable cell number [6, 17]: 8 × 10^3 cells/g of sample
viable cell number [6, 18]: 3 × 10^4 cells/g of sample
viable cell number [7, 13]: 2 × 10^2 cells/g of sample
viable cell number [7, 14]: 8 × 10^2 cells/g of sample
viable cell number [7, 15]: 5 × 10^2 cells/g of sample
viable cell number [7, 16]: 2 × 10^2 cells/g of sample
viable cell number [7, 17]: 3 × 10^3 cells/g of sample
viable cell number [7, 18]: 5 × 10^4 cells/g of sample
bactericidal effect on putrefying bacteria in food [8]: no bactericidal effect in the real sense
survival of bacteria living inside plaque [1]: half survived
survival of bacteria in plaque [9]: continued to survive
Recovery: Thin skin overall [2]: 5 days
Recovery: Complete recovery (coat grown back) ([2]; listed as Hibitane gel): 40 days and 38 days
Recovery: Skin with roughly original thickness ([2]; listed as Hibitane gel): 12 days
Elongation of nails (thumbnails of volunteers; 10 days): 0.8 mm
Elongation of nails (thumbnails of volunteers; 20 days): 1.7 mm
Elongation of nails (thumbnails of volunteers; 30 days): 2.5 mm
Elongation of nails (thumbnails of volunteers; 40 days): 3.3 mm
Elongation of nails (thumbnails of volunteers; 50 days): 4.2 mm
Elongation of nails (thumbnails of volunteers; 60 days): 5.0 mm
length of severed red worms (Red worms; [10]): 21 mm
length of severed red worms (Red worms; 10 days after severing): 22 mm
length of severed red worms (Red worms; 15 days after severing): 23 mm
Deaths (Red worms; in vivo): 10
